Tested on: MPNST complex spheroid with HUVEC/MSC, growth, % test/control
Assay: Anticancer human tumor MPNST cell line growth inhibition [Asc];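 also: compounds left on spheroids for seven days before reading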
Settings: for IC50: curve of first compound; for viability, T/C: stronger effect = lower value
In short: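 Stromal components (HUVEC and hMSC) are co-assembled with the cancer cells into multicellular spheroids. Drugs are then added singly or paired, at concentrations falling by half-log increments from a clinically achievable maximum, capped at 10 microM without known Cmax.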

[1] = second compound 0.1 µM, first compound 0.00316 µM
[2] = second compound 0.1 µM, first compound 0.01 µM
[3] = second compound 0.1 µM, first compound 0.0316 µM
[4] = second compound 0.1 µM, first compound 0.1 µM
[5] = second compound 0.316 µM, first compound 0.00316 µM
[6] = second compound 0.316 µM, first compound 0.01 µM
[7] = second compound 0.316 µM, first compound 0.0316 µM
[8] = second compound 0.316 µM, first compound 0.1 µM
[9] = second compound 1 µM, first compound 0.00316 µM
[10] = second compound 1 µM, first compound 0.01 µM
[11] = second compound 1 µM, first compound 0.0316 µM
[12] = second compound 1 µM, first compound 0.1 µM
[13] = second compound 3.16 µM, first compound 0.00316 µM
[14] = second compound 3.16 µM, first compound 0.01 µM
[15] = second compound 3.16 µM, first compound 0.0316 µM
[16] = second compound 3.16 µM, first compound 0.1 µM
[17] = second compound 10 µM, first compound 0.00316 µM
[18] = second compound 10 µM, first compound 0.01 µM
[19] = second compound 10 µM, first compound 0.0316 µM
[20] = second compound 10 µM, first compound 0.1 µM

Cc1nc(N2CCC3(CC2)COC(C)C3N)c(CO)nc1Sc1ccnc(N)c1Cl (stereo not given) + CCN1C(C(=O)NC23CCC(C(=O)O)(CC2)CC3)C(c2cccc(Cl)c2F)C2(C(=O)Nc3cc(Cl)ccc32)C12CCCCC2
IC50 (second compound 0.03 µM): > 3 µM
IC50 (second compound 0.0949 µM): > 3 µM
IC50 (second compound 0.3 µM): > 3 µM
IC50 (second compound 0.949 µM): > 3 µM
IC50 (second compound 3 µM): > 3 µM
viability, T/C (second compound 0.03 µM, first compound 0.00949 µM): 92%
viability, T/C (second compound 0.03 µM, first compound 0.03 µM): 84.1%
viability, T/C (second compound 0.03 µM, first compound 0.0949 µM): 90.7%
viability, T/C (second compound 0.03 µM, first compound 0.3 µM): 87.9%
viability, T/C (second compound 0.03 µM, first compound 0.949 µM): 101%
viability, T/C (second compound 0.03 µM, first compound 3 µM): 75.5%
viability, T/C (second compound 0.0949 µM, first compound 0.00949 µM): 83.8%
viability, T/C (second compound 0.0949 µM, first compound 0.03 µM): 89%
viability, T/C (second compound 0.0949 µM, first compound 0.0949 µM): 92.2%
viability, T/C (second compound 0.0949 µM, first compound 0.3 µM): 82.2%
viability, T/C (second compound 0.0949 µM, first compound 0.949 µM): 75.5%
viability, T/C (second compound 0.0949 µM, first compound 3 µM): 58.3%
viability, T/C (second compound 0.3 µM, first compound 0.00949 µM): 101%
viability, T/C (second compound 0.3 µM, first compound 0.03 µM): 83.6%
viability, T/C (second compound 0.3 µM, first compound 0.0949 µM): 92.8%
viability, T/C (second compound 0.3 µM, first compound 0.3 µM): 77.2%
viability, T/C (second compound 0.3 µM, first compound 0.949 µM): 83.2%
viability, T/C (second compound 0.3 µM, first compound 3 µM): 63.4%
viability, T/C (second compound 0.949 µM, first compound 0.00949 µM): 77.9%
viability, T/C (second compound 0.949 µM, first compound 0.03 µM): 89.9%
viability, T/C (second compound 0.949 µM, first compound 0.0949 µM): 70%
viability, T/C (second compound 0.949 µM, first compound 0.3 µM): 76.7%
viability, T/C (second compound 0.949 µM, first compound 0.949 µM): 68%
viability, T/C (second compound 0.949 µM, first compound 3 µM): 54.4%
viability, T/C (second compound 3 µM, first compound 0.00949 µM): 66.3%
viability, T/C (second compound 3 µM, first compound 0.03 µM): 75.9%
viability, T/C (second compound 3 µM, first compound 0.0949 µM): 72.4%
viability, T/C (second compound 3 µM, first compound 0.3 µM): 67.8%
viability, T/C (second compound 3 µM, first compound 0.949 µM): 52.3%
viability, T/C (second compound 3 µM, first compound 3 µM): 55.8%

CCN1CCN(Cc2ccc(Nc3ncc(F)c(-c4cc(F)c5nc(C)n(C(C)C)c5c4)n3)nc2)CC1 + Cc1c(S(C)(=O)=O)c(-c2cc(F)cc(N3CCN(c4ccc(NS(=O)(=O)c5ccc(NC(CCN6CCC(C(=O)OCCCP(=O)(O)O)CC6)CSc6ccccc6)c(S(=O)(=O)C(F)(F)F)c5)cc4)CC3)c2)c(-c2ccc(Cl)cc2)n1C(C)C
IC50 (second compound 0.1 µM): > 1 µM
IC50 (second compound 0.316 µM): > 1 µM
IC50 (second compound 1 µM): > 1 µM
IC50 (second compound 3.16 µM): 1 µM
IC50 (second compound 10 µM): 0.316 µM
viability, T/C [1]: 75.8%
viability, T/C [2]: 72.3%
viability, T/C [3]: 73.7%
viability, T/C [4]: 78.3%
viability, T/C (second compound 0.1 µM, first compound 0.316 µM): 55.8%
viability, T/C (second compound 0.1 µM, first compound 1 µM): 64.5%
viability, T/C [5]: 82.8%
viability, T/C [6]: 54.8%
viability, T/C [7]: 75.6%
viability, T/C [8]: 84.2%
viability, T/C (second compound 0.316 µM, first compound 0.316 µM): 53.5%
viability, T/C (second compound 0.316 µM, first compound 1 µM): 58%
viability, T/C [9]: 76.6%
viability, T/C [10]: 78.5%
viability, T/C [11]: 76.9%
viability, T/C [12]: 62.3%
viability, T/C (second compound 1 µM, first compound 0.316 µM): 53%
viability, T/C (second compound 1 µM, first compound 1 µM): 55.1%
viability, T/C [13]: 73.3%
viability, T/C [14]: 77.9%
viability, T/C [15]: 57%
viability, T/C [16]: 47.6%
viability, T/C (second compound 3.16 µM, first compound 0.316 µM): 56.3%
viability, T/C (second compound 3.16 µM, first compound 1 µM): 47.3%
viability, T/C [17]: 83.5%
viability, T/C [18]: 91.4%
viability, T/C [19]: 50.2%
viability, T/C [20]: 52.8%
viability, T/C (second compound 10 µM, first compound 0.316 µM): 55.4%
viability, T/C (second compound 10 µM, first compound 1 µM): 47.1%

NC1CCC(NC2CC2c2ccccc2)CC1 (stereo not given) + Cc1c(S(C)(=O)=O)c(-c2cc(F)cc(N3CCN(c4ccc(NS(=O)(=O)c5ccc(NC(CCN6CCC(C(=O)OCCCP(=O)(O)O)CC6)CSc6ccccc6)c(S(=O)(=O)C(F)(F)F)c5)cc4)CC3)c2)c(-c2ccc(Cl)cc2)n1C(C)C
IC50 (second compound 0.1 µM): > 0.1 µM
IC50 (second compound 0.316 µM): > 0.1 µM
IC50 (second compound 1 µM): > 0.1 µM
IC50 (second compound 3.16 µM): > 0.1 µM
IC50 (second compound 10 µM): > 0.1 µM
viability, T/C (second compound 0.1 µM, first compound 0.000316 µM): 67.4%
viability, T/C (second compound 0.1 µM, first compound 0.001 µM): 71.3%
viability, T/C [1]: 63.5%
viability, T/C [2]: 75%
viability, T/C [3]: 72.4%
viability, T/C [4]: 64.2%
viability, T/C (second compound 0.316 µM, first compound 0.000316 µM): 81.8%
viability, T/C (second compound 0.316 µM, first compound 0.001 µM): 67.6%
viability, T/C [5]: 87.1%
viability, T/C [6]: 64.5%
viability, T/C [7]: 66.4%
viability, T/C [8]: 61.8%
viability, T/C (second compound 1 µM, first compound 0.000316 µM): 73.8%
viability, T/C (second compound 1 µM, first compound 0.001 µM): 63.2%
viability, T/C [9]: 70.4%
viability, T/C [10]: 66.5%
viability, T/C [11]: 69.4%
viability, T/C [12]: 59.8%
viability, T/C (second compound 3.16 µM, first compound 0.000316 µM): 60.8%
viability, T/C (second compound 3.16 µM, first compound 0.001 µM): 81.5%
viability, T/C [13]: 64.9%
viability, T/C [14]: 65.8%
viability, T/C [15]: 65.4%
viability, T/C [16]: 54.1%
viability, T/C (second compound 10 µM, first compound 0.000316 µM): 79%
viability, T/C (second compound 10 µM, first compound 0.001 µM): 83.2%
viability, T/C [17]: 69.2%
viability, T/C [18]: 69.7%
viability, T/C [19]: 65.9%
viability, T/C [20]: 62%

— PubChem BioAssay AID1963442 (Molecular Pharmacology Branch, DTP, NCI, 2024)
